In US20230295197A1, “STAT5 and STAT6 Degraders and Uses Thereof” (REGENTS OF THE UNIVERSITY OF MICHICAN, priority 2022, published 2023):
Read-outs that look alike come from different tables or passages of the source.

Molecular target: T1, STAT6 (Homo sapiens, UniProt P42226)
T1 construct: endogenous in cells; host or cells: MOLM-16, KU-812, SKNO1, MB231, L1236
T1 sequence (P42226 1-847): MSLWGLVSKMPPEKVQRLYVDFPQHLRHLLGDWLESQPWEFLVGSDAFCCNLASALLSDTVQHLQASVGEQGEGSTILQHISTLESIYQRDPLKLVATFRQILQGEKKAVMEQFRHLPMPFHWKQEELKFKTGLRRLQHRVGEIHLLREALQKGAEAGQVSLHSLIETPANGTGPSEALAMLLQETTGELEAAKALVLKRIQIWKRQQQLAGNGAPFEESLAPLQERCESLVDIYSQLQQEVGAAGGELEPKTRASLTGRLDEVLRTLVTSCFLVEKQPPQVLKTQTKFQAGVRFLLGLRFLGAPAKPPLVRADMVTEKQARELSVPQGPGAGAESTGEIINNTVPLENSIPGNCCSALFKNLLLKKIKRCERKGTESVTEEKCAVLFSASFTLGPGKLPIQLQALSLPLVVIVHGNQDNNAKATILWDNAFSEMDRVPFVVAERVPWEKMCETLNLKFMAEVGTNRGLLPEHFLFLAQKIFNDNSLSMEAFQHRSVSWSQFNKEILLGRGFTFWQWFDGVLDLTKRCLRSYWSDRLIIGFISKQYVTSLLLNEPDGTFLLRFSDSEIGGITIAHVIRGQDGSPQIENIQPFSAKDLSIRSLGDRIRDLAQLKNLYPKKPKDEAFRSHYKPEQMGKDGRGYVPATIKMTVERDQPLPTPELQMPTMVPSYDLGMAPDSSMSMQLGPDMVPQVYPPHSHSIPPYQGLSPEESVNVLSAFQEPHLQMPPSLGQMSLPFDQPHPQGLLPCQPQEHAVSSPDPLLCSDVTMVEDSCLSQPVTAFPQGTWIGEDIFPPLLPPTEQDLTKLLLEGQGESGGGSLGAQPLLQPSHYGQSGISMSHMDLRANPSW
Assay: Immunoblotting (Western blot) analysis of STAT6 degradation efficiency of degraders in treated cells
Assay type: cell-based
Method in brief: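 Degradation read by quantitative near-infrared Western blot: equal protein loads (20-40 μg) from compound-treated versus untreated cells, probed overnight at 4° C. for STAT5 or STAT6 with GAPDH reference. Compound concentrations and exposure times as indicated; cells grown in medium with 10% FBS at 37° C.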

[1] = MOLM-16 cells, class symbols, read-out: DC50 S6 MOLM-16
[2] = L1236 cells, read-out: DC50 S6 L1236

Molecule `Cc1ncsc1-c1ccc([C@H](C)NC(=O)[C@@H]2C[C@@H](O)CN2C(=O)[C@@H](NC(=O)CCCNC(=O)COc2ccc3c(c2)CN(C(=O)[C@@H](NC(=O)c2cc4cc(C(F)(F)P(=O)(O)O)ccc4s2)C(C)(C)C)[C@H](C(=O)N2CCC[C@H](c4ccccc4)C2)C3)C(C)(C)C)cc1` [Compound 472, (difluoro(2-(((S)-1-((S)-7-(2-((4-(((S)-1-((2S,4R)-4-hydroxy-2-(((S)-1-(4-(4-methylthiazol-5-yl)phenyl)ethyl)carbamoyl)pyrrolidin-1-yl)-3,3-dimethyl-1-oxobutan-2-yl)amino)-4-oxobutyl)amino)-2-oxoethoxy)-3-((R)-3-phenylpiperidine-1-carbonyl)-3,4-dihydroisoquinolin-2(1H)-yl)-3,3-dimethyl-1-oxobutan-2-yl)carbamoyl)benzo[b]thiophen-5-yl)methyl)phosphonic acid] has a DC50 [1] of over 10 µM.
Molecule `Cc1ncsc1-c1ccc([C@H](C)NC(=O)[C@@H]2C[C@@H](O)CN2C(=O)[C@@H](NC(=O)CCNC(=O)CC(=O)N2CCN(C(=O)[C@@H](NC(=O)c3cc4cc(C(F)(F)P(=O)(O)O)ccc4s3)C(C)(C)C)[C@H](C(=O)N3CCO[C@H](c4ccccc4)C3)C2)C(C)(C)C)cc1` [Compound 444, (difluoro(2-(((S)-1-((S)-4-(3-((3-(((S)-1-((2S,4R)-4-hydroxy-2-(((S)-1-(4-(4-methylthiazol-5-yl)phenyl)ethyl)carbamoyl)pyrrolidin-1-yl)-3,3-dimethyl-1-oxobutan-2-yl)amino)-3-oxopropyl)amino)-3-oxopropanoyl)-2-((R)-2-phenylmorpholine-4-carbonyl)piperazin-1-yl)-3,3-dimethyl-1-oxobutan-2-yl)carbamoyl)benzo[b]thiophen-5-yl)methyl)phosphonic acid] has a DC50 [2] of over 10 µM and a DC50 [1] of over 10 µM.
In the case of `CC(C)(C)[C@H](NC(=O)c1cc2cc(C(F)(F)P(=O)(O)O)ccc2s1)C(=O)N1C[C@@H](OCCCCCC(=O)N2Cc3cc4c(cc3C2)C(=O)N(C2CCC(=O)NC2=O)C4)C[C@H]1C(=O)N1CCO[C@H](c2ccccc2)C1` (stereo partly drawn) [Compound 590, ((2-(((2S)-1-((2S,4S)-4-((6-(6-(2,6-dioxopiperidin-3-yl)-5-oxo-3,5,6,7-tetrahydropyrrolo[3,4-f]isoindol-2(1H)-yl)-6-oxohexyl)oxy)-2-((R)-2-phenylmorpholine-4-carbonyl)pyrrolidin-1-yl)-3,3-dimethyl-1-oxobutan-2-yl)carbamoyl)benzo[b]thiophen-5-yl)difluoromethyl)phosphonic acid], the DC50 [1] is reported as 1 to 10 µM.
`Cc1ncsc1-c1ccc([C@H](C)NC(=O)[C@@H]2C[C@@H](O)CN2C(=O)[C@@H](NC(=O)CCCCCCNC(=O)CO[C@H]2C[C@@H](C(=O)N3CCO[C@H](c4ccccc4)C3)N(C(=O)[C@@H](NC(=O)c3cc4cc(C(F)(F)P(=O)(O)O)ccc4s3)C(C)(C)C)C2)C(C)(C)C)cc1` [Compound 430, (difluoro(2-(((S)-1-((2S,4S)-4-(2-((7-(((S)-1-((2S,4R)-4-hydroxy-2-(((S)-1-(4-(4-methylthiazol-5-yl)phenyl)ethyl)carbamoyl)pyrrolidin-1-yl)-3,3-dimethyl-1-oxobutan-2-yl)amino)-7-oxoheptyl)amino)-2-oxoethoxy)-2-((R)-2-phenylmorpholine-4-carbonyl)pyrrolidin-1-yl)-3,3-dimethyl-1-oxobutan-2-yl)carbamoyl)benzo[b]thiophen-5-yl)methyl)phosphonic acid] showed a DC50 [2] of over 10 µM and a DC50 [1] of over 10 µM.
`CC(C)(C)[C@H](NC(=O)c1cc2cc(C(F)(F)P(=O)(O)O)ccc2s1)C(=O)N1C[C@@H](OCC(=O)NCCCCCCCCCC#Cc2ccc3c(c2)C(=O)N(C2CCC(=O)NC2=O)C3=O)C[C@H]1C(=O)N1CCO[C@H](c2ccccc2)C1` (stereo partly drawn) [Compound 492, ((2-(((2S)-1-((2S,4S)-4-(2-((11-(2-(2,6-dioxopiperidin-3-yl)-1,3-dioxoisoindolin-5-yl)undec-10-yn-1-yl)amino)-2-oxoethoxy)-2-((R)-2-phenylmorpholine-4-carbonyl)pyrrolidin-1-yl)-3,3-dimethyl-1-oxobutan-2-yl)carbamoyl)benzo[b]thiophen-5-yl)difluoromethyl)phosphonic acid] showed a DC50 [1] of over 10 µM.
In the case of `Cc1ncsc1-c1ccc([C@H](C)NC(=O)[C@@H]2C[C@@H](O)CN2C(=O)[C@@H](NC(=O)CCCNC(=O)CO[C@H]2C[C@@H](C(=O)N3CCC[C@H](c4ccccc4)C3)N(C(=O)[C@@H](NC(=O)c3cc4cc(C(F)(F)P(=O)(O)O)ccc4s3)C(C)(C)C)C2)C(C)(C)C)cc1` [Compound 436, (difluoro(2-(((S)-1-((2S,4S)-4-(2-((4-(((S)-1-((2S,4R)-4-hydroxy-2-(((S)-1-(4-(4-methylthiazol-5-yl)phenyl)ethyl)carbamoyl)pyrrolidin-1-yl)-3,3-dimethyl-1-oxobutan-2-yl)amino)-4-oxobutyl)amino)-2-oxoethoxy)-2-((R)-3-phenylpiperidine-1-carbonyl)pyrrolidin-1-yl)-3,3-dimethyl-1-oxobutan-2-yl)carbamoyl)benzo[b]thiophen-5-yl)methyl)phosphonic acid], the DC50 [2] is reported as over 10 µM and the DC50 [1] is reported as over 10 µM.
In the case of `Cc1ncsc1-c1ccc(CNC(=O)[C@@H]2C[C@@H](O)CN2C(=O)[C@@H](NC(=O)CCCCCNC(=O)CO[C@@H]2C[C@@H](C(=O)N(C)c3ccc(Br)cc3)N(C(=O)[C@@H](NC(=O)c3cc4cc(C(F)(F)P(=O)(O)O)ccc4s3)C(C)(C)C)C2)C(C)(C)C)cc1` [Compound 417, ((2-(((S)-1-((2S,4R)-2-((4-bromophenyl)(methyl)carbamoyl)-4-(2-((6-(((S)-1-((2S,4R)-4-hydroxy-2-((4-(4-methylthiazol-5-yl)benzyl)carbamoyl)pyrrolidin-1-yl)-3,3-dimethyl-1-oxobutan-2-yl)amino)-6-oxohexyl)amino)-2-oxoethoxy)pyrrolidin-1-yl)-3,3-dimethyl-1-oxobutan-2-yl)carbamoyl)benzo[b]thiophen-5-yl)difluoromethyl)phosphonic acid], the DC50 [2] is reported as over 10 µM and the DC50 (MB231 cells, read-out: DC50 S6 MB231) is reported as over 10 µM.
Molecule `CC(C)(C)[C@H](NC(=O)c1cc2cc(C(F)(F)P(=O)(O)O)ccc2s1)C(=O)N1C[C@@H](OCC(=O)NCCCCCCCCC#Cc2ccc3c(c2)C(=O)N(C2CCC(=O)NC2=O)C3=O)C[C@H]1C(=O)N1CCO[C@H](c2ccccc2)C1` (stereo partly drawn) [Compound 490, ((2-(((2S)-1-((2S,4S)-4-(2-((10-(2-(2,6-dioxopiperidin-3-yl)-1,3-dioxoisoindolin-5-yl)dec-9-yn-1-yl)amino)-2-oxoethoxy)-2-((R)-2-phenylmorpholine-4-carbonyl)pyrrolidin-1-yl)-3,3-dimethyl-1-oxobutan-2-yl)carbamoyl)benzo[b]thiophen-5-yl)difluoromethyl)phosphonic acid] has a DC50 [1] of over 10 µM.
With `CC(C)(C)[C@H](NC(=O)c1cc2cc(C(F)(F)P(=O)(O)O)ccc2s1)C(=O)N1C[C@@H](OCC(=O)NCCCC#Cc2cccc3c2C(=O)N(C2CCC(=O)NC2=O)C3=O)C[C@H]1C(=O)N1CCC[C@H](c2ccccc2)C1` (stereo partly drawn) [Compound 497, ((2-(((2S)-1-((2S,4S)-4-(2-((5-(2-(2,6-dioxopiperidin-3-yl)-1,3-dioxoisoindolin-4-yl)pent-4-yn-1-yl)amino)-2-oxoethoxy)-2-((R)-3-phenylpiperidine-1-carbonyl)pyrrolidin-1-yl)-3,3-dimethyl-1-oxobutan-2-yl)carbamoyl)benzo[b]thiophen-5-yl)difluoromethyl)phosphonic acid] the DC50 [1] was over 10 µM.
With `Cc1ncsc1-c1ccc([C@H](C)NC(=O)[C@@H]2C[C@@H](O)CN2C(=O)[C@@H](NC(=O)CCCCCCCCNC(=O)CC(=O)N2CCN(C(=O)[C@@H](NC(=O)c3cc4cc(C(F)(F)P(=O)(O)O)ccc4s3)C(C)(C)C)[C@H](C(=O)N3CCO[C@H](c4ccccc4)C3)C2)C(C)(C)C)cc1` [Compound 450, (difluoro(2-(((S)-1-((S)-4-(3-((9-(((S)-1-((2S,4R)-4-hydroxy-2-(((S)-1-(4-(4-methylthiazol-5-yl)phenyl)ethyl)carbamoyl)pyrrolidin-1-yl)-3,3-dimethyl-1-oxobutan-2-yl)amino)-9-oxononyl)amino)-3-oxopropanoyl)-2-((R)-2-phenylmorpholine-4-carbonyl)piperazin-1-yl)-3,3-dimethyl-1-oxobutan-2-yl)carbamoyl)benzo[b]thiophen-5-yl)methyl)phosphonic acid] the DC50 [2] was over 10 µM and the DC50 [1] was over 10 µM.
